Source: patent publication US20230233569A1 (Revolution Medicines, Inc., priority 2020, published 2023)
Where two headings read alike, the source gives them in different places.

Columns and labels:
KRAS G12S = KRAS G12S (Homo sapiens, UniProt P01116+P62937, G12S); test: Disruption of BRAF RBD interaction with Ras (FRET / MOA assay, with Cyclophilin A); assay type: biochemical
Outline: (§1)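 Measured via TR-FRET after 3 h at 25 °C with compound (30 μM top, threefold serial steps, ten concentrations) plus K-Ras, Cyclophilin A and BRAF RBD, followed by 1.5 h with anti-His europium (10 nM) and anti-GST allophycocyanin (50 nM). Signal loss versus DMSO gave IC50.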

KRAS G12C = KRAS G12C (Homo sapiens, UniProt P01116+P62937, G12C); test: as above; assay type: biochemical
Outline: as §1

KRAS G12V = KRAS G12V (Homo sapiens, UniProt P01116+P62937, G12V); test: as above; assay type: biochemical
Outline: as §1

KRAS G13C = KRAS G13C (Homo sapiens, UniProt P01116+P62937, G13C); test: as above; assay type: biochemical
Outline: as §1

NRAS G12C = NRAS G12C (Homo sapiens, UniProt P01111+P62937, G12C); test: as above; assay type: biochemical
KRAS G12D = KRAS G12D (Homo sapiens, UniProt P01116+P62937, G12D); test: as above; assay type: biochemical
Outline: as §1

KRAS G13D = KRAS G13D (Homo sapiens, UniProt P01116+P62937, G13D); test: as above; assay type: biochemical
Outline: as §1

KRAS WT = KRAS WT (Homo sapiens, UniProt P01116+P62937); test: as above; assay type: biochemical
Outline: as §1

Capan-1 (K-Ras G12V) = test: CellTiter-Glo cell viability assay, 5-day treatment; assay type: cell-based; settings: Homo sapiens, CAPAN-1, 120 h, 5-day treatment; read-out: Capan-1 Cell Viability assay data (K-Ras G12V, IC50)
Outline: (§2)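 Compounds were dispensed directly onto seeded cells and incubated for 5 days, then plates were equilibrated to room temperature for about 30 minutes before luminescence reading. Signals were expressed as percent of the mean DMSO control and fitted with a four-parameter logistic curve.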

NCI-H358 (K-Ras G12C) = test: as above; assay type: cell-based; settings: Homo sapiens, NCI-H358, 120 h, 5-day treatment; read-out: H358 Cell Viability assay data (K-Ras G12C, IC50)
Outline: as §2

[1] = read-out: KRAS G12S FRET data, IC50
[2] = read-out: KRAS G12C FRET data, IC50
[3] = KRAS G12V, read-out: KRAS G12V FRET data IC50
[4] = read-out: KRAS G13C FRET data, IC50
[5] = NRAS G12C, read-out: NRAS G12C FRET data IC50
[6] = read-out: KRAS G12D FRET data, IC50
[7] = KRAS G13D, read-out: KRAS G13D FRET data IC50
[8] = KRAS WT, read-out: KRAS WT FRET data IC50

KRAS G12C, sequence (P01116 1-169 isoform P01116-2 G12C): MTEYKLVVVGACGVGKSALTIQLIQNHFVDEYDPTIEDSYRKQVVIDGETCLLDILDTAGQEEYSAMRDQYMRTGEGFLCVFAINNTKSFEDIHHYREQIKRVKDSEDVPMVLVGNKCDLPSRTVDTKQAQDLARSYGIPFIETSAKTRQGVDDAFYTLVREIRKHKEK
KRAS G12C, sequence (P62937 whole entry): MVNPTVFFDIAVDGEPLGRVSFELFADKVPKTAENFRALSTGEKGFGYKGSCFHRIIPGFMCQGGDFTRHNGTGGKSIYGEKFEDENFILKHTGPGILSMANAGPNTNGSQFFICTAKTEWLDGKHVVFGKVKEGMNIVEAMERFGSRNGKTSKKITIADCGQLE
KRAS WT, sequence (P01116 1-169 isoform P01116-2 limits assumed): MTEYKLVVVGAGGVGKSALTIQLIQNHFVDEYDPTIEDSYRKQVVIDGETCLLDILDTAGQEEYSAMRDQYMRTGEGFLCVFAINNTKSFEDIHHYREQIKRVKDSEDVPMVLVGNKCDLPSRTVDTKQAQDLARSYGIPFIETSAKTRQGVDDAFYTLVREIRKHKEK
KRAS WT, sequence (P62937 whole entry): as the sequence (P62937 whole entry) above
NRAS G12C, sequence (P01111 whole entry G12C): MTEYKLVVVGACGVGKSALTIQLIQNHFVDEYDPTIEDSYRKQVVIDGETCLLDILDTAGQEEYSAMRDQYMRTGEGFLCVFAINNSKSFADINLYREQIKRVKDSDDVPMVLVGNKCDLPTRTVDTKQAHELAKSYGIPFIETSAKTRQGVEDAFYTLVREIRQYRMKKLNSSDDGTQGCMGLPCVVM
NRAS G12C, sequence (P62937 whole entry): as the sequence (P62937 whole entry) above
KRAS G13D, sequence (P01116 1-169 isoform P01116-2 G13D limits assumed): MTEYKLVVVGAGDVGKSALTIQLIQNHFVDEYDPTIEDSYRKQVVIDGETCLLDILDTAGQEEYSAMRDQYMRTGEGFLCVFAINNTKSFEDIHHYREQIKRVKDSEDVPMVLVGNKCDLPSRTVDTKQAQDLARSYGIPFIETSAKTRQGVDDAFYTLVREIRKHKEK
KRAS G13D, sequence (P62937 whole entry): as the sequence (P62937 whole entry) above
KRAS G13C, sequence (P01116 1-169 isoform P01116-2 G13C): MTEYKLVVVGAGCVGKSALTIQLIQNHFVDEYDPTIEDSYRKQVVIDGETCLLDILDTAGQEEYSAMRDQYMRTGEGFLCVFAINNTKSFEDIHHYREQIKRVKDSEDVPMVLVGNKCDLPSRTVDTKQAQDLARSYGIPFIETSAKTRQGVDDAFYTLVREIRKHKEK
KRAS G13C, sequence (P62937 whole entry): as the sequence (P62937 whole entry) above
KRAS G12D, sequence (P01116 1-169 isoform P01116-2 G12D limits assumed): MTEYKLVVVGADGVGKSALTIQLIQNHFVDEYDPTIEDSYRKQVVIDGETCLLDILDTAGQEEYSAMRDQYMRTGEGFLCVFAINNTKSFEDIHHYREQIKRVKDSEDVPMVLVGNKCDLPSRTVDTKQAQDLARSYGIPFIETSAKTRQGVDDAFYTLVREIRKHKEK
KRAS G12D, sequence (P62937 whole entry): as the sequence (P62937 whole entry) above
KRAS G12V, sequence (P01116 1-169 isoform P01116-2 G12V limits assumed): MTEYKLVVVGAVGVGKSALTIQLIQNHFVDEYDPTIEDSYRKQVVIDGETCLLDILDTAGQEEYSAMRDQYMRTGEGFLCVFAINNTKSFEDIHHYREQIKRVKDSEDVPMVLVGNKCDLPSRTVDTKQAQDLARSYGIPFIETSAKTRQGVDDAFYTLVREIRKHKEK
KRAS G12V, sequence (P62937 whole entry): as the sequence (P62937 whole entry) above
KRAS G12S, sequence (P01116 1-169 isoform P01116-2 G12S limits assumed): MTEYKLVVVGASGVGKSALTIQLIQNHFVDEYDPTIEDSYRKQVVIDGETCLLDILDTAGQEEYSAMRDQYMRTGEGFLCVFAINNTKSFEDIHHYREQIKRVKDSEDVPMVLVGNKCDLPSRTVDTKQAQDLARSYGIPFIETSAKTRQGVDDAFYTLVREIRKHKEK
KRAS G12S, sequence (P62937 whole entry): as the sequence (P62937 whole entry) above

Row | Compound | IC50 (KRAS G12S; [1]) | IC50 (KRAS G12C; [2]) | IC50 (KRAS G12V; [3]) | IC50 (KRAS G13C; [4]) | IC50 (NRAS G12C; [5]) | IC50 (KRAS G12D; [6]) | IC50 (KRAS G13D; [7]) | IC50 (KRAS WT; [8]) | IC50 (NCI-H358 (K-Ras G12C)) | IC50 (KRAS G12S; KRAS G12S FRET data, IC50) | IC50 (KRAS G12C; KRAS G12C FRET data, IC50) | IC50 (KRAS G12V; KRAS G12V FRET data IC50, KRAS G12V) | IC50 (KRAS G13C; KRAS G13C FRET data, IC50) | IC50 (NRAS G12C; NRAS G12C FRET data IC50, NRAS G12C) | IC50 (KRAS G12D; KRAS G12D FRET data, IC50) | IC50 (KRAS G13D; KRAS G13D FRET data IC50, KRAS G13D) | IC50 (KRAS WT; KRAS WT FRET data IC50, KRAS WT) | IC50 (Capan-1 (K-Ras G12V))
1 | CCn1c(-c2cccnc2[C@H](C)OC)c2c3cc(ccc31)-c1cc(O)cc(c1)C[C@H](NC(=O)[C@H](C(C)C)N(C)C(=O)[C@H]1CCN[C@H]1C)C(=O)N1CCC[C@H](N1)C(=O)OCC(C)(C)C2 [Example A127] | 10 to 100 nM | 10 to 100 nM | 100 to 1000 nM | 10 to 100 nM | 10 to 100 nM | 10 to 100 nM | 10 to 100 nM | 10 to 100 nM | 1000 to 10000 nM |  |  |  |  |  |  |  |  | > 10000 nM
2 | CCn1c(-c2cccnc2[C@H](C)OC)c2c3cc(ccc31)-c1cc(O)cc(c1)C[C@H](NC(=O)[C@H](C(C)C)N(C)C(=O)[C@H]1CCN(C(=O)CN(C)C)C1)C(=O)N1CCC[C@H](N1)C(=O)OCC(C)(C)C2 [Example A95] | 10 to 100 nM | 10 to 100 nM | 10 to 100 nM | 10 to 100 nM | 10 to 100 nM | 10 to 100 nM | 10 to 100 nM | 10 to 100 nM | 100 to 1000 nM |  |  |  |  |  |  |  |  | 100 to 1000 nM
3 | CCn1c(-c2cccnc2[C@H](C)OC)c2c3cc(ccc31)-c1cc(O)cc(c1)C[C@H](NC(=O)C(C1CC1)C1CC1)C(=O)N1CCC[C@H](N1)C(=O)OCC(C)(C)C2 [Example A184] | 100 to 1000 nM | 100 to 1000 nM | 100 to 1000 nM | 10 to 100 nM | 100 to 1000 nM | 1000 to 10000 nM | 100 to 1000 nM | 100 to 1000 nM | 100 to 1000 nM |  |  |  |  |  |  |  |  | 1000 to 10000 nM

The next lines start with results.

Row | IC50 (KRAS G12S; [1]) | IC50 (KRAS G12C; [2]) | IC50 (KRAS G12V; [3]) | IC50 (KRAS G13C; [4]) | IC50 (NRAS G12C; [5]) | IC50 (KRAS G12D; [6]) | IC50 (KRAS G13D; [7]) | IC50 (KRAS WT; [8]) | IC50 (NCI-H358 (K-Ras G12C)) | IC50 (KRAS G12S; KRAS G12S FRET data, IC50) | IC50 (KRAS G12C; KRAS G12C FRET data, IC50) | IC50 (KRAS G12V; KRAS G12V FRET data IC50, KRAS G12V) | IC50 (KRAS G13C; KRAS G13C FRET data, IC50) | IC50 (NRAS G12C; NRAS G12C FRET data IC50, NRAS G12C) | IC50 (KRAS G12D; KRAS G12D FRET data, IC50) | IC50 (KRAS G13D; KRAS G13D FRET data IC50, KRAS G13D) | IC50 (KRAS WT; KRAS WT FRET data IC50, KRAS WT) | Compound | IC50 (Capan-1 (K-Ras G12V))
4 | 100 to 1000 nM | 100 to 1000 nM | 100 to 1000 nM | 100 to 1000 nM | 100 to 1000 nM | 100 to 1000 nM | 100 to 1000 nM | 100 to 1000 nM | 10 to 100 nM |  |  |  |  |  |  |  |  | CCn1c(-c2cccnc2[C@H](C)OC)c2c3cc(ccc31)-c1csc(n1)C[C@H](NC(=O)[C@H](C(C)C)N(C)C(=O)N1CCN(C)C3(CC3)C1)C(=O)N1CCC[C@H](N1)C(=O)OCC(C)(C)C2 [Example A311] | 100 to 1000 nM
5 |  |  |  |  |  |  |  |  | 100 to 1000 nM | 10 to 100 nM | 10 to 100 nM | 10 to 100 nM | 10 to 100 nM | 10 to 100 nM | 100 to 1000 nM | 10 to 100 nM | 10 to 100 nM | CCn1c(-c2cccnc2[C@H](C)OC)c2c3cc(ccc31)-c1cc(O)cc(c1)C[C@H](NC(=O)[C@H](C(C)C)N(C)C(=O)[C@H]1C[C@@H](O)C1)C(=O)N1CCC[C@H](N1)C(=O)OCC(C)(C)C2 (atropisomer, axis not shown) [Example A121] | 100 to 1000 nM
6 | 100 to 1000 nM | 10 to 100 nM | 100 to 1000 nM | 100 to 1000 nM | 10 to 100 nM | 1000 to 10000 nM | 100 to 1000 nM | 100 to 1000 nM | 10 to 100 nM |  |  |  |  |  |  |  |  | CCn1c(-c2cccnc2[C@H](C)OC)c2c3cc(ccc31)-c1csc(n1)C[C@H](NC(=O)[C@H](C(C)C)N(C)C(=O)N1CC(C#N)(N(C)C)C1)C(=O)N1CCC[C@H](N1)C(=O)OCC(C)(C)C2 [Example A452] | 10 to 100 nM
7 | 100 to 1000 nM | 100 to 1000 nM | 100 to 1000 nM | 100 to 1000 nM | 100 to 1000 nM | 100 to 1000 nM | 100 to 1000 nM | 100 to 1000 nM | 10 to 100 nM |  |  |  |  |  |  |  |  | CCn1c(-c2cccnc2[C@H](C)OC)c2c3cc(ccc31)-c1csc(n1)C[C@H](NC(=O)[C@H](C(C)C)N(C)C(=O)N1CCOC3(CN(C)C3)C1)C(=O)N1CCC[C@H](N1)C(=O)OCC(C)(C)C2 [Example A294] | 100 to 1000 nM
8 | 100 to 1000 nM | 10 to 100 nM | 100 to 1000 nM | 100 to 1000 nM | 100 to 1000 nM | 1000 to 10000 nM | 100 to 1000 nM | 100 to 1000 nM | 100 to 1000 nM |  |  |  |  |  |  |  |  | CCn1c(-c2cccnc2[C@H](C)OC)c2c3cc(ccc31)-c1cc(O)cc(c1)C[C@H](NC(=O)[C@H](C(C)C)N(C)C(=O)C1COC1)C(=O)N1CCC[C@H](N1)C(=O)OCC(C)(C)C2 [Example A18] | 100 to 1000 nM
